In patent publication US20110166118A1, “NEW TRINEM ANTIBIOTICS AND INHIBITORS OF BETA-LACTAMASES” (LEK PHARMACEUTICALS D.D., priority 2008, published 2011):

How the values were obtained:
[1] = system: ceftazidime-resistant strains; assay: Broth microdilution susceptibility assay, overall comparison; format: cell-based; details: in words, several ceftazidime-resistant strains tested
Method: (§1) Stock solutions of the test compounds and Tazocin® were prepared in distilled water according to the CLSI guidelines [Methods for dilution antimicrobial tests for bacteria that grow aerobically. NCCLS document M7-A5; 2000; vol. 19. Clinical and Laboratory Standards Institute, Villanova, Pa.].
(§2) All tested strains and clinical isolates were either purchased from the American Type Culture Collection (ATCC), or from the in-house company culture collection. The tested strains were purely used for the purposes of illustrative example, and are by no means essential for performing the invention.
(§3) The strains were processed according to procedures recommended by ATCC, or procedures that are routinely used. Frozen bacterial stocks were thawed to room temperature, and a few drops were placed on an appropriate blood agar plate. The cultures were subcultured on a fresh Mueller-Hinton agar plate (MHA) the following day, and the subcultures were again incubated overnight.
(§4) Bacterial suspensions with a turbidity equivalent to that of a 0.5 McFarland standard were prepared by suspending a tiny portion of one colony from blood agar plates in 2 mL of sterile saline. […]
(§5) The in vitro activities of the antibiotics were determined by the broth microdilution method as recommended by CLSI guidelines. […]

C. freundii B271 (SHV-5) = assay: Broth microdilution MIC, S9; format: cell-based; details: CAMHB, 35° C., 24 h, duplicate
Method: as §1, §2, §3, §4, §5

E. cloacae Lek 24 (AmpC) = assay: Broth microdilution MIC, S1; format: cell-based; details: CAMHB, 35° C., 24 h, duplicate
Method: as §1, §2, §3, §4, §5

E. faecium Lek 116 = assay: Broth microdilution MIC, S15; format: cell-based; details: Enterococcus faecium, LEK116, CAMHB, 35° C., 24 h, duplicate
Method: as §1, §2, §3, §4, §5

[2] = biological target: class C beta-lactamase P99 (AmpC) (Enterobacter cloacae, UniProt P05364); assay: biochemical; format: biochemical
Sequence of class C beta-lactamase P99 (AmpC) (P05364 21-381): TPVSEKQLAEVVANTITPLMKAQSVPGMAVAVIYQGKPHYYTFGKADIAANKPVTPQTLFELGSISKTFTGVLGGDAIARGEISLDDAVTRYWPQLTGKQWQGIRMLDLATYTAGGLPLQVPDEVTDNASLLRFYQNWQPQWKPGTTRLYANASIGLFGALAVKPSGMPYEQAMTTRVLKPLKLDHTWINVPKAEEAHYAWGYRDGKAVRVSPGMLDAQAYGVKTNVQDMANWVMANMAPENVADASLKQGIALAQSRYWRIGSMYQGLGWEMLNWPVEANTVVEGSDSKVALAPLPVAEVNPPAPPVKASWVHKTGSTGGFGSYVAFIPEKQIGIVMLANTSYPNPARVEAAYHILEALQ
Method: (§6) The IC50 value represents the concentration of inhibitor required to effect a 50% loss of activity of free enzyme. A standard test for the production of beta-lactamase involves use of the chromogenic cephalosporin, nitrocefin.
(§7) Homogeneously purified class A beta-lactamases TEM-1 and SHV-1 from E. coli and class C enzyme P99 from Enterobacter cloaca were employed in the assay.
(§8) All the enzymes and compounds were dissolved in 50 mM phosphate buffer pH 7.0 and all further dilutions were done with the same buffer solution. Enzyme and compound dilutions were pre-incubated for 30 min at 37° C. and in a final volume of 500 μl. Than 10 μl of 5 mM nitrocefin (reporter substrate) was added to the solution and the absorbance at 482 nm was measured during 2 to 5 minutes. The initial rate was calculated for all the different solutions.

[3] = biological target: class A beta-lactamase SHV-1 (Escherichia coli, UniProt P0AD63); assay: IC50 determination with nitrocefin, SHV-1; format: biochemical, E. coli
Sequence of class A beta-lactamase SHV-1 (P0AD63 22-286): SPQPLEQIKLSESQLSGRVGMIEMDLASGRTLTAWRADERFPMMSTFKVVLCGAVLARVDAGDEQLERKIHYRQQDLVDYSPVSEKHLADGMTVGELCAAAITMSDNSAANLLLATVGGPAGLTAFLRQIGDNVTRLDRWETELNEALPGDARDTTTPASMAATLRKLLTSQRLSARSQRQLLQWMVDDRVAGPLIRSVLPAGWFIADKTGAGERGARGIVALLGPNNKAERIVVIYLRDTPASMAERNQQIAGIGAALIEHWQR
Method: as §6, §7, §8

[4] = system: E. cloacae Lek 14, derepressed (AmpC); assay: Broth microdilution MIC, S2; format: cell-based; details: CAMHB, 35° C., 24 h, duplicate
Method: as §1, §2, §3, §4, §5

E. coli B309 = assay: Broth microdilution MIC, S13; format: cell-based; details: Escherichia coli, CAMHB, 35° C., 24 h, duplicate
Method: as §1, §2, §3, §4, §5

[5] = system: C. freundii Lek 17 (AmpC); assay: Broth microdilution MIC, S19; format: cell-based; details: Citrobacter freundii, CAMHB, 35° C., 24 h, duplicate
Method: as §1, §2, §3, §4, §5

C. freundii B318 (CTX-M) = assay: Broth microdilution MIC, S10; format: cell-based; details: Citrobacter freundii, CAMHB, 35° C., 24 h, duplicate
Method: as §1, §2, §3, §4, §5

[6] = system: K. pneumoniae ATCC 700603 (SHV-18); assay: Broth microdilution MIC, S8; format: cell-based; details: Klebsiella pneumoniae, ATCC700603, CAMHB, 35° C., 24 h, duplicate
Method: as §1, §2, §3, §4, §5

E. coli B308 = assay: Broth microdilution MIC, S12; format: cell-based; details: Escherichia coli, CAMHB, 35° C., 24 h, duplicate
Method: as §1, §2, §3, §4, §5

[7] = biological target: class A beta-lactamase TEM-1 (Escherichia coli, UniProt P62593); assay: IC50 determination with nitrocefin, TEM-1; format: biochemical, E. coli; details: pre-incubated 30 min at 37° C., phosphate buffer pH 7.0, nitrocefin
Sequence of class A beta-lactamase TEM-1 (P62593 24-286 limits assumed): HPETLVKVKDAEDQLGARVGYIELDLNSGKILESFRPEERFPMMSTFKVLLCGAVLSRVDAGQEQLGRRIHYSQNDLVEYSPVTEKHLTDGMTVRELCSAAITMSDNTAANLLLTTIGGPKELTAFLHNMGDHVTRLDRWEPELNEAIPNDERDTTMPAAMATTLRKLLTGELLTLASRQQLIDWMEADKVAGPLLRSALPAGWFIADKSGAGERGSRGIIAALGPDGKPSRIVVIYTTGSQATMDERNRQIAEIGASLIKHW
Method: as §6, §7, §8

[8] = system: K. pneumoniae B312 (SHV-18); assay: Broth microdilution MIC, S6; format: cell-based; details: Klebsiella pneumoniae, CAMHB, 35° C., 24 h, duplicate
Method: as §1, §2, §3, §4, §5

K. pneumoniae Lek 22 = assay: Broth microdilution MIC, S18; format: cell-based; details: Klebsiella pneumoniae, LEK22, CAMHB, 35° C., 24 h, duplicate
Method: as §1, §2, §3, §4, §5

E. cloacae 4013 = assay: Broth microdilution MIC, S3; format: cell-based; details: Enterobacter cloacae, CAMHB, 35° C., 24 h, duplicate
Method: as §1, §2, §3, §4, §5

E. faecalis Lek 112 = assay: Broth microdilution MIC, S14; format: cell-based; details: Enterococcus faecalis, LEK112, CAMHB, 35° C., 24 h, duplicate
Method: as §1, §2, §3, §4, §5

K. pneumoniae Lek 8 = assay: Broth microdilution MIC, S16; format: cell-based; details: Klebsiella pneumoniae, LEK8, CAMHB, 35° C., 24 h, duplicate
Method: as §1, §2, §3, §4, §5

E. faecalis ATCC 29212 = assay: Broth microdilution MIC, S5; format: cell-based; details: Enterococcus faecalis, ATCC29212, CAMHB, 35° C., 24 h, duplicate
Method: as §1, §2, §3, §4, §5

[9] = system: E. caerogenes ATCC 29751 (class II); assay: Broth microdilution MIC, S4; format: cell-based; details: CAMHB, 35° C., 24 h, duplicate
Method: as §1, §2, §3, §4, §5

K. pneumoniae DSA 1461 = assay: Broth microdilution MIC, S7; format: cell-based; details: Klebsiella pneumoniae, DSA1461, CAMHB, 35° C., 24 h, duplicate
Method: as §1, §2, §3, §4, §5

[10] = system: K. pneumoniae B401 (TEM-10, TEM-12); assay: Broth microdilution MIC, S17; format: cell-based; details: Klebsiella pneumoniae, CAMHB, 35° C., 24 h, duplicate
Method: as §1, §2, §3, §4, §5

[11] = in words, compared to tazobactam

In the case of `CO[C@H]1CCC[C@H]2C1=C(C(=O)[O-])N1C(=O)[C@H]([C@H](O)CF)[C@@H]21.[Na+]` [LK-180, Sodium salt of (4S,8S,9R)-4-methoxy-10-(1-(S)-hydroxy-fluoroethyl)-11-oxo-1-azatricyclo-[7.2.0.0 (3,8)]undec-2-ene-2-carboxylic acid], the “antibiotic activity compared to Tazocin®” value [1] is reported as “superior to Tazocin®”, the “MIC S9” value (C. freundii B271 (SHV-5)) is reported as 16 µg/mL and the “MIC S1” value (E. cloacae Lek 24 (AmpC)) is reported as 4 µg/mL. It also gave an MIC (E. cloacae Lek 24 (AmpC); Enterobacter cloacae) of 8 µg/mL, an MIC (E. faecium Lek 116) of 32 µg/mL and an IC50 [2] of 0.5 nM. The “activity against AmpC enzyme as compared to tazobactam” value [2, 11] was “highly potentiated activity”, the IC50 [3] was 12 nM and the “activity against SHV-1 enzyme as compared to tazobactam” value [3, 11] was “highly potentiated activity”. For the same compound, the “MIC S2” value [4] was 4 µg/mL, the MIC (E. coli B309) was 4 µg/mL and the MIC [5] was 8 µg/mL. It also gave an MIC (C. freundii B318 (CTX-M)) of 128 µg/mL, an MIC [6] of 2 µg/mL and an MIC (E. coli B308) of 4 µg/mL. The IC50 [7] was 500 nM, the MIC [8] was 8 µg/mL and the MIC (K. pneumoniae Lek 22) was 32 µg/mL. The MIC (E. cloacae 4013) was 64 µg/mL, the MIC (E. faecalis Lek 112) was 4 µg/mL and the MIC (K. pneumoniae Lek 8) was 16 µg/mL. The MIC (E. faecalis ATCC 29212) was 4 µg/mL, the MIC [9] was 16 µg/mL and the MIC (K. pneumoniae DSA 1461) was 4 µg/mL. It also gave an MIC [10] of 8 µg/mL.
In the case of `CO[C@H]1CCC[C@H]2C1=C(C(=O)O)N1C(=O)[C@H]([C@H](O)C(F)(F)F)[C@@H]21` [LK-178, Sodium (4S,8S,9R,10S)-4-methoxy-10-[1-(S)-hydroxy-2,2,2-trifluoroethyl]-11-oxo-azatricyclo[7.2.0.0^3,8]undec-2-ene-2-carboxylate], the IC50 [2] is reported as 419 nM, the IC50 [3] is reported as 1100 nM and the IC50 [7] is reported as 8400 nM.
